# Experimental data as given in patent publication US20240208944A1, “Quinazoline Derivatives, Pharmaceutical Compositions, and Therapeutic Uses Related to Nox Inhibition” (Emory University, priority 2021, published 2024).
# Structures can show the parent of a compound that is named as a salt. Where two headings read alike, the source gives them in different places.
# Assays:
# NOX-2 = NOX-2 (Homo sapiens (Human), UniProt P04839); test: NOX-2 inhibition (Nox assays); type: biochemical
# NOX-4 = NOX-4 (Homo sapiens (Human), UniProt Q9NPH5); test: NOX-4 inhibition (Nox assays); type: biochemical
# NOX-4, sequence (Q9NPH5 whole entry, species assumed): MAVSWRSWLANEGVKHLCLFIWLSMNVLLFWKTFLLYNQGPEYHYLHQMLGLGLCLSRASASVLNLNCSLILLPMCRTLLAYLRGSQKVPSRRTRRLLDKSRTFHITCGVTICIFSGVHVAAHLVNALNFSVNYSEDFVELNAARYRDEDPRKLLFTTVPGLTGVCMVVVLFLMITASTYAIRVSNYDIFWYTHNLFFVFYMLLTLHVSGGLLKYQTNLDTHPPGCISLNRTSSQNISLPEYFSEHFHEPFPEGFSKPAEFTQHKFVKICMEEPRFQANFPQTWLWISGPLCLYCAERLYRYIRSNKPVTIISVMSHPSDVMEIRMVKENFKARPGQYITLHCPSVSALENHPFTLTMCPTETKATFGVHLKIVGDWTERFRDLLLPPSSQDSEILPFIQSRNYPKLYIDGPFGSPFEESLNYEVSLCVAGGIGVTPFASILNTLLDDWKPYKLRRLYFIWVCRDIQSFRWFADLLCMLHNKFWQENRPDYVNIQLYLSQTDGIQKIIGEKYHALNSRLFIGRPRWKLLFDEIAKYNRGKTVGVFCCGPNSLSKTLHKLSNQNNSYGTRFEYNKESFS
# NOX-4, sequence (P13498 whole entry partner, species assumed): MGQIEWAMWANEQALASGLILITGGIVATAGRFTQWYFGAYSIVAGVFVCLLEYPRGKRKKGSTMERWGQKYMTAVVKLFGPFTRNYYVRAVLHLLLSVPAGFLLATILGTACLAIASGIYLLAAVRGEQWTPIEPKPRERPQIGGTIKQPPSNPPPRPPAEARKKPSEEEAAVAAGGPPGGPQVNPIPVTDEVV
# Cytotoxicity CC50 = type: cell-based
# [1] = Aqueous (water) solubility; type: physicochemical; details: for solubility: water
# Description: (§1) The aqueous solubility, liver microsomal stability, and in vivo pharmacokinetics were determined. […] These derivatives have requisite stability in mouse liver microsomes.
# [2] = Mouse liver microsomal stability; type: in vitro ADME; details: mouse liver microsomes; read-out: MLM T1/2
# Description: as §1
# [3] = In vivo pharmacokinetics in Sprague Dawley rats; design: species or system rat; details: for half-life: male SD rats
# Description: The compound has a brain-to-plasma ratio >10.
# In Vivo Pharmacokinetics for Compound TG15-132S in Sprague Dawley (SD) Rats.
# THP1 monocytic cells = test: PMA-induced mRNA levels of NOX2, its subunits and inflammatory markers in THP1 cells; type: cell-based; details: THP1 cells treated with PMA 100 ng/ml
# Description: These markers are suppressed by the treatment of NOX2 inhibitor TG15-132.HCI.
# NOX-2, sequence (P04839 2-570, species assumed): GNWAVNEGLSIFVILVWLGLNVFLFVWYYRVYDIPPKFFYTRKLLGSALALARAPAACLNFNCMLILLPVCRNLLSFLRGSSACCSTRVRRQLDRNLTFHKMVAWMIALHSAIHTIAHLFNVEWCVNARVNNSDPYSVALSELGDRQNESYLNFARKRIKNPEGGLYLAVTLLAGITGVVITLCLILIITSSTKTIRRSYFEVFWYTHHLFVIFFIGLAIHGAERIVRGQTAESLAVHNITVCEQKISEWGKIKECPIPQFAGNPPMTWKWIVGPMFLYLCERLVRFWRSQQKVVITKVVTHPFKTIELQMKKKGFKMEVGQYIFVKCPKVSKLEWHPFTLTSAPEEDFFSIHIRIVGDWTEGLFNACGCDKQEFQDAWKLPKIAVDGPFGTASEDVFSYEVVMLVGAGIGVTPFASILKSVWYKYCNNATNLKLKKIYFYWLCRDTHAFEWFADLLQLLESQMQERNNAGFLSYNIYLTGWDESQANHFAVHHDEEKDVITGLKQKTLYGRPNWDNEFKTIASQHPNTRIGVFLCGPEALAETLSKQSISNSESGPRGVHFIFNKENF
# NOX-2, sequence (P13498 whole entry partner, species assumed): as the sequence (P13498 whole entry partner, species assumed) above
compound,measurement,setting,value
"CN(C)CCCn1c(SCCc2c[nH]c3ccccc23)nc2ccc(Cl)cc2c1=O.Cl [TG15-139S, 2-((2-(1H-indol-3-yl)ethyl)thio)-6-chloro-3-(3-(dimethylamino)propyl)quinazolin-4(3H)-one. Hydrochloride]",IC50,NOX-2,1.65 µM
same,IC50,NOX-4,32 µM
same,CC50,Cytotoxicity CC50,> 10 µM
same,water solubility (in words),[1],excellent water solubility
same,solubility,[1],2350 µM
same,half-life,[2],1.25 h
same,Kp at 8 h,"[3]; male, Sprague-Dawley, rat, brain and plasma, SD rats, single 20 mg/kg IP, up to 8 h, read-out: brain-to-plasma ratio up to 8 h",> 10
same,Kp,"[3]; male, Sprague-Dawley, rat, brain and plasma, SD rats, single 20 mg/kg IP, read-out: brain-to-plasma ratio",> 23
"CN(C)CCCn1c(SCCCc2ccccn2)nc2ccc(F)cc2c1=O [LY5-11, 3-(3-(dimethylamino)propyl)-6-fluoro-2-((3-(pyridin-2-yl)propyl)thio)quinazolin-4(3H)-one]",IC50,NOX-2,> 100 µM
"CC(C)N1CCN(CCCn2c(SCCc3c[nH]c4ccccc34)nc3ccc(F)cc3c2=O)CC1 [TG17-57, 2-((2-(1H-indol-3-yl)ethyl)thio)-6-fluoro-3-(3-(4-isopropylpiperazin-1-yl)propyl)quinazolin-4(3H)-one]",IC50,NOX-2,2.4 µM
"CN(C)CCCn1c(SCCc2c[nH]c3ccccc23)nc2ccc(F)cc2c1=O.Cl [TG15-132S, 2-((2-(1H-indol-3-yl)ethyl)thio)-3-(3-(dimethylamino)propyl)-6-fluoroquinazolin-4(3H)-one, hydrochloride]",IC50,NOX-2,3.3 µM
same,IC50,NOX-4,26 µM
same,CC50,Cytotoxicity CC50,> 20 µM
same,water solubility (in words),[1],excellent water solubility
same,solubility,[1],1200 µM
same,half-life,[2],0.4 h
same,clearance rate,"[3]; SD rats, single 20 mg/kg IP",32.75 mL/min/kg
same,half-life,"[3]; Sprague-Dawley, rat, 20 mg/kg IP, brain, read-out: half-life in the brain",> 5 h
same,half-life,"[3]; Sprague-Dawley, rat, 20 mg/kg IP, plasma, read-out: half-life in plasma",> 5 h
same,Kp,"[3]; male, Sprague-Dawley, brain and plasma, rat, 20 mg/kg IP, read-out: In vivo B/P Ratio (brain-to-plasma ratio)",> 10
same,In vivo B/P Ratio (brain-to-plasma ratio),"[3]; rat, 20 mg/kg IP, hydrochloride",>10
same,"mRNA levels of NOX2 (gp91phox), p47phox, p67phox, IL-1beta and TNF",THP1 monocytic cells,suppressed
"CN(C)CCCn1c(SCCc2ccccn2)nc2ccc(Cl)cc2c1=O [TG15-124-HCl, 6-chloro-3-(3-(dimethylamino)propyl)-2-((2-(pyridin-2-yl)ethyl)thio)quinazolin-4(3H)-one]",IC50,NOX-2,> 100 µM
same,CC50,Cytotoxicity CC50,> 10 µM
"O=C(CCCn1c(=S)[nH]c2ccccc2c1=O)N1CCN(c2ccccc2O)CC1 [Compd. 43, 3-(4-(4-(2-hydroxyphenyl)piperazin-1-yl)-4-oxobutyl)-2-thioxo-2,3-dihydroquinazolin-4(1H)-one]",IC50,NOX-2,2.3 µM
same,IC50,NOX-4,> 50 µM
same,CC50,Cytotoxicity CC50,> 20 µM
"O=C(CCCn1c(=S)[nH]c2ccc(F)cc2c1=O)N1CCN(c2ccccc2O)CC1 [LY4-123S, 6-fluoro-3-(4-(4-(2-hydroxyphenyl)piperazin-1-yl)-4-oxobutyl)-2-thioxo-2,3-dihydroquinazolin-4(1H)-one]",IC50,NOX-2,3.3 µM
same,IC50,NOX-4,8.3 µM
"CN(C)CCCn1c(SCc2ccccn2)nc2ccc(F)cc2c1=O [LY5-10, 3-(3-(dimethylamino)propyl)-6-fluoro-2-((pyridin-2-ylmethyl)thio)quinazolin-4(3H)-one]",IC50,NOX-2,> 100 µM
"CN(C)CCCn1c(SCCc2ccccn2)nc2ccc(F)cc2c1=O [TG15-131-HCl, 3-(3-(dimethylamino)propyl)-6-fluoro-2-((2-(pyridin-2-yl)ethyl)thio)quinazolin-4(3H)-one]",IC50,NOX-2,> 50 µM
